Test [1] deals with BrdU-positive cells in the hippocampus. Briefly: Histology: BrdU positive cells in hippocampus of aged mice. In kind it is in vivo, C57Bl/6 mice. Here is the method: For fluorescent microscopy, the following antibodies were used in the given concentrations: GFAP, 1:500, DAKO; Iba1, 1:1000, Wako; and BrdU, 1:500, AbCam. Antigen retrieval protocol was required for BrdU (2N HCl, 37 C, 30 min) prior to blocking. The appropriate fluorescent secondary antibodies were applied the next day at a concentration of 1:300 for one hour at room temperature. Prolong Gold Mounting Media was used to coverslip the slides. Images were acquired on a light microscope at 5× magnification.
Two-month-old or 18-month-old C57Bl/6 mice were dosed with either IgG antibody control by IP injection or Compound 1 subcutaneously by Alzet osmotic pump for either 2 or 4 weeks. During the last week of treatment, mice were subjected to behavior testing prior to perfusion on the last day of treatment. All mice received 5 consecutive days of BrdU injection at 150 mg/kg IP immediately prior to treatment start. […]

For test [2], the system named is two-month-old C57Bl/6 mice treated with rmCCL11. As to the kind of experiment: Barnes maze test in young mice given recombinant mouse CCL11. In kind it is in vivo. The settings on record: 2-month-old mice; rmCCL11 i.p.; Compound 1 30 mg/kg p.o. b.i.d. The source says: A modified Barnes maze was used to assess spatial working/episodic like learning and memory. The Barnes maze apparatus consists of a 122 cm diameter circular platform with 40 escape holes, each with a diameter of 5 cm placed along three rings of varying distances from the center of the platform. An escape box is attached to one of the holes and all holes are left uncovered. Bright lights and a fan are trained on the maze to provide adverse stimuli to encourage escape. Visual cues are placed on all four sides of the maze. Mice are given a series of 4 or 5 trials with inter-trial intervals of approximately 10 min, and the maximum duration of each trial is 90 or 120 sec. For each trial, mice are placed in the center of the maze. After 10 seconds, mice are allowed to explore, and the trial is ended if the mouse has found and entered an escape box before the end of the trial. Mice that cannot find the escape box are led to it and allowed to enter and given 30 sec to remain before being returned to its home cage. Training is done for 4 days. Data that is recorded and analyzed include velocity, escape latency, and distance moved.
Two-month-old C57Bl/6 mice were dosed with either vehicle control or Compound 1 by oral gavage twice daily for 18 days. During the last week of treatment, mice were subjected to behavior testing prior to perfusion on the last day of treatment. […]

Turning to `Cc1cc(C(=O)N(C)C)cc(NC(=O)[C@H]2CCC(=O)N2C2CCN(Cc3ccc(Cl)c(C)c3)CC2)n1` [Compound 1], the “BrdU-positive cells in the hippocampus” value is reported as “significantly increased the number of BrdU-positive cells” in test [1] (16.5-month-old mice, four-week dosing by pump) and “trend in increased BrdU-positive cells” in test [1] (18-month-old mice, higher dosing for 2 weeks by pump). For the same compound, in test [2], the “memory in the Barnes maze” value is “significantly improved memory performance”.

Source of the values: patent publication US11382907B2, “Methods and compositions for treating aging-associated impairments using CCR3-inhibitors” (Alkahest, Inc., priority 2017, dated 2022).
